This series in a line: In-vitro particle size distribution of the aerosol at the mouthpiece. Type of series: physicochemical. As for the experimental part:
Percentage of inhaled mass is a measured quantity, and represents the amount of aerosolized medicament which would be inhaled by a patient. Chamber percent is measured and represents the amount remaining in the chamber 22. MMAD is the mass median aerodynamic size of the aerosolized droplets 79, and FPF<5 μm denotes the fine particle fraction under 5 microns, which represents a particle size distribution well suited for delivery to the deep lung. Inhaled mass may be measured by a variety of means, such as by scintigraphy, or by washing the device or component thereof, eluting the drug and directly measuring, e.g. by titration. Inhaled mass measurements are described, for example, in European Standard EN13544-1, which is incorporated by reference herein.
In this Example an in-vitro delivered dose and particle size distribution (PSD) of the device of FIG. 1 was measured, using a dose of 400 mg of amikacin (125 mg/ml; 3.2 ml). Thus, the in-vitro percentage inhaled mass of amikacin sulfate at the mouthpiece under simulated patient breathing was quantified. Under the following conditions: Tidal Volume (TV) was 500 mL; Respiratory rate (RR) was 15 and an inspiratory to expiratory ratio was 2:3. Three devices were tested. Also, an in-vitro particle size distribution (PSD) at the was determined. Mass balance was determined at the end of the first inhaled mass test run. Breathing parameters of the ventilator were verified pre- and post-inhaled mass test runs. The experimental set up is depicted in FIG. 9.

As to `NCC[C@H](O)C(=O)N[C@@H]1C[C@H](N)[C@@H](O[C@H]2O[C@H](CN)[C@@H](O)[C@H](O)[C@H]2O)[C@H](O)[C@H]1O[C@H]1O[C@H](CO)[C@@H](O)[C@H](N)[C@H]1O.O=S(=O)(O)O.O=S(=O)(O)O` [amikacin, amikacin sulfate], the “Fine Particle fraction of less than 5 microns (FPF<5.0 μm)” value was “about 66%”. Also, the “Fine Particle Dose of less than 5 microns (FPD<5.0 μm)” value (400 mg dose) was “about 240 mg”. Moreover, the “Mass Median Aerodynamic Diameter (MMAD) of the aerosolized particles” value (three hand-held devices) is recorded as 3.7-3.8 μm.
